The structures appear in SMILES notation.

For the assay, the target named is T1, NA of influenza A/PuertoRico/8/1934 (H1N1) virus (Influenza A virus (A/Puerto Rico/8/1934(H1N1)), UniProt P03468).
T1 construct: native viral NA in allantoic fluid of infected embryonated chicken eggs (whole virus, not purified)
The assay is described as follows: fluorescence NA inhibition assay with MU-NANA. In kind it is biochemical. As to conditions: MU-NANA substrate (30 μl of 80 μM in 100 μl); 10 min preincubation, 30 min reaction, 37 °C; virus-containing allantoic fluid.

T1 sequence (P03468 whole entry): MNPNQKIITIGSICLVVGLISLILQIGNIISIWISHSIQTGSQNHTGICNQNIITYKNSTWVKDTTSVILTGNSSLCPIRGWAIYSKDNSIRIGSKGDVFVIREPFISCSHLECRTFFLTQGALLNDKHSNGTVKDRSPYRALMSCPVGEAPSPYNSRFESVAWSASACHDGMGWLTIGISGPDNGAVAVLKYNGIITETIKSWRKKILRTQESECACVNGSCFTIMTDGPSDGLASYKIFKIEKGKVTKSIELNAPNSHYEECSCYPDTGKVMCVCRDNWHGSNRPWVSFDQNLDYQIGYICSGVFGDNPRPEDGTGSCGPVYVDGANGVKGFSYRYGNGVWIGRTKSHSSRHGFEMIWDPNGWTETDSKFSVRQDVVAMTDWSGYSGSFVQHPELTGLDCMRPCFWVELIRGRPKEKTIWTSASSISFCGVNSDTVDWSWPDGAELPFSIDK

`O=C(/C=C/c1ccc(O)c(O)c1)O[C@@H]1C[C@](O)(C(=O)O)C[C@@H](O)[C@H]1O` [CHA, chlorogenic acid]: half-maximal inhibition (IC50) was put at 22.1 ± 1.07 µM.
